One series relates to RTP/Drg1 protein. As to the kind of experiment: Western blot of RTP/Drg1 protein in MDA-MB-231 cells. Format: cell-based, human. To be noted: 20% oxygen, up to 72 h; 100 μM cobalt chloride, 30 mM Tiron or 100 μM DFO. The method, then: (§1) To determine whether hypoxia regulates the expression of certain genes (e.g., PAI-1, uPAR, RTP/Drg1) via an iron-containing heme protein, cells were cultured for up to 72 h at 20% oxygen in the presence or absence of either 100 μM cobalt chloride, or 30 mM sodium 4,5-dihydroxybenzene-1,3-disulfonate (Tiron), or 100 μM desferrioxamine mesylate (DFO) (Sigma Chemical CO., St. Louis, Mo.). Further confirmation of the role of a heme protein in hypoxic responses can be achieved by culturing cells under hypoxia in the presence of carbon monoxide, which maintains the heme protein in the oxy state and thereby blocks heme protein-mediated hypoxic responses. Thus, cells were also cultured for 24 h at 37° C. under hypoxic conditions in the presence of 30% carbon monoxide.
Western Blot Analysis. To examine levels of RTP/Drg1 protein, cells were lysed with buffer containing 40 mM HEPES pH 7.2, 100 mM NaCl, 20% glycerol, 0.1 mM EDTA pH 8.0, 0.2% Triton X-100 (polyoxyethylene (10) isooctylphenyl ether), 1 mM DTT, and 2 mM PMSF, and centrifuged briefly at 4° C. The supernatants were collected and stored at −80° C. until use. SDS-PAGE was performed and resolved proteins were transferred to Immobilon-P membranes (Millipore Corp., Bedford, Mass.) using a semi-dry transfer cell (Bio-Rad Laboratories, Mississauga, ON). Membranes were blocked by incubation overnight at 4° C. in a PBS-buffered solution containing 0.01% Tween 20 (polyoxyethylene(20) sorbitan monolaurate) (PBS-T) and 5% casein. The blots were then incubated with polyclonal rabbit anti-Drg1 antiserum followed by incubation with a peroxidase labeled goat anti-rabbit IgG secondary antibody (Vector Lab. Inc., Burlingame, Calif.). Antigen was detected by enhanced chemiluminescence (ECL, Amersham Canada Inc., Oakville, ON) and exposure of the membrane onto Dupont Reflection NEF film (Dupont Canada, Inc., Mississauga ON).
Background: Immunoblotting shows a protein as a band on a membrane.

A further series deals with RTP/Drg1 mRNA. As to the kind of experiment: Northern blot of RTP/Drg1 mRNA in MDA-MB-231 cells. Format: cell-based, human. The settings on record: 20% oxygen, up to 72 h; 100 μM cobalt chloride, 30 mM Tiron or 100 μM DFO. The method, then:
as §1
Northern Blot Analysis. Total RNA was isolated from cell lines as described above. Aliquots of 20 μg were denatured and subjected to electrophoresis in 1% agarose-formaldehyde gels (Sambrook, J., Fritsch, E. F., and Maniatis, T. Molecular Cloning: A Laboratory Manual, Cold Spring Harbor Laboratory, Cold Spring Harbor, N.Y. (1989)). RNA was transferred to nylon membranes (Micron Separations, Inc., Westboro, Mass.). After prehybridization at 42° C. for 2-3 h in 50% formamide, 5×Denhardt's solution, 0.5% sodium dodecyl sulfate (SDS), 6×SSC (1×SSC: 0.15M NaCl, 15 mM sodium citrate, pH 7.0), and 100 μg/mL denatured salmon sperm DNA, membranes were hybridized for a period of time of overnight (˜18 h) to about 72 h at 42° C. with a cDNA probe (e.g., RTP/Drg1, PAI-1 (PAI-1 cDNA provided by Dr. Keith McCrae, Temple University School of Medicine, Philadelphia, Pa.), uPAR (Higazi A, et al., J Biol Chem 266:12752, (1995)) pre-labeled with [^32P]-dCTP using a Pharmacia Oligolabelling kit (Pharmacia Biotech, Piscataway, N.J.). The hybridization solution contained 6×SSC, 0.5% SDS, 100 μg/mL denatured salmon sperm DNA, 50% formamide and cDNA probe. After hybridization, the membranes were washed with 2×SSC and 0.5% SDS at room temperature for 15 min, 2×SSC and 0.1% SDS at room temperature for 15 min, and 0.1×SSC and 0.5% SDS for 30 min. Dupont Reflection NEF film (Dupont Canada, Inc., Mississauga, ON) was exposed to the membranes for 1-3 days at −80° C. Bands on radiographic film were analyzed using a SigmaGel gel analysis software package (Jandel Scientific Software, San Rafael, Calif.).

Another series deals with hepatic cytochromes P450. To be noted: literature; cited from earlier work.
Series [1] relates to RTP/Drg1. To be noted: endothelial cells treated with homocysteine; cited from earlier work.
Series [2] relates to RTP/Drg1. The settings on record: A549 cells exposed to nickel; cited from earlier work.
The subject of the next series is APO-induced erections. As to the kind of experiment: Apomorphine (APO) bioassay of erectile function. Format: in vivo, Wistar rats. An excerpt:
16 adult male Wistar rats from Charles River Laboratories (Montreal, Quebec) weighing 300-350 g were used in the investigation. The animals were divided into two study groups. The animals were individually housed in a climate-controlled room under a 12-hour light/dark cycle and allowed access to food (Purina Lab Chow) and water ad libitum. All procedures were in accordance with the guidelines set out by the Canadian Council on Animal Care. The animals were allowed to acclimate 5 days prior to testing and were handled by the researcher during this time.
The apomorphine (APO) bioassay of erectile function was performed in an isolated area. […] The animals were each placed in a separate hanging wire test cage in an isolated, dark and sound proof room and allowed to acclimatize to the surroundings for 10 minutes. Each rat received 80 ug/kg APO (Sigma Chemical Co., St. Louis, Mo.) prepared in physiological saline containing […] ascorbic acid via subcutaneous (s.c.) injection (lml/kg at the nape of the neck). Erectile and yawning responses to APO were monitored and recorded (30 minutes) in an adjacent room via a video monitoring system.
(§2) An erection was counted when an engorged glans penis and distal shaft were exposed. A wide opening of the mouth associated with appropriate respiratory movement identified a yawn. […] Rats with unsatisfactory control erectile response were removed from further study.
Yawns were not altered in either protocol (data not shown).
The 270 mg/kg dose was prepared, requiring initial heating and stirring. This dose was administered in a single injection (1 ml/kg, i.p. of a 270 mg/ml concentration) half an hour prior to the commencement of APO-induced erectile monitoring.
At one week intervals, rats were given single, increasing doses of flutamide (25, 35, or 50 mg/kg) (Sigma Chemical Co., St. Louis, Mo.). For each dose, flutamide was dissolved in peanut oil and administered via i.p injection in a volume of 1 ml/kg. […] Each dose of flutamide was given 1 week after the previous dose, to allow APO-induced erections to return to control levels.
From the group of 8 rats, 4 rats were randomly selected.
Testosterone was administered in an attempt to recover APO-induced erections to control levels.
The required testosterone concentrations were prepared using 100 mg/ml testosterone propionate (Taro Pharmaceuticals, Brarnalea, ON.) diluted in peanut oil. Each dose was administered in a 1 ml/kg volume.
For each APO testing protocol, the average number of erections and standard deviation was determined. […] Therefore, each rat served as its own control. Treated values were compared to control values using Student's paired t-test, except where noted in Study 2b.

In the next series the test system is APO-induced yawns. The series is described as follows: APO-induced yawning response. Type of series: in vivo, Wistar rats. The method, then: The apomorphine (APO) bioassay of erectile function was performed in an isolated area. The rat model of APO-induced erections used to assess the effects of p,p-DDE and flutamide on erectile function was based on the model developed by Heaton et al J Urol. 145:1099 (1991). The animals were each placed in a separate hanging wire test cage in an isolated, dark and sound proof room and allowed to acclimatize to the surroundings for 10 minutes. Each rat received 80 ug/kg APO (Sigma Chemical Co., St. Louis, Mo.) prepared in physiological saline containing […] ascorbic acid via subcutaneous (s.c.) injection (lml/kg at the nape of the neck). Erectile and yawning responses to APO were monitored and recorded (30 minutes) in an adjacent room via a video monitoring system.
as §2

The conditions of series [3]: pubertal or adults rats, Kelce et al; cited from earlier work.
The test system of another series is uPAR mRNA. As to the kind of experiment: Northern blot of uPAR mRNA in HTR-8/SVneo cells. Type of series: cell-based, human. To be noted: 10 ng/ml VEGF, 24 h, normoxic conditions. The procedure:
as §1, with “Thus, cells were also cultured for 24 h at 37° C. under hypoxic conditions in the presence of 30% carbon monoxide.” left out
Northern Blot Analysis. Total RNA was isolated from cell lines as described above. […] RNA was transferred to nylon membranes (Micron Separations, Inc., Westboro, Mass.). […] The hybridization solution contained 6×SSC, 0.5% SDS, 100 μg/mL denatured salmon sperm DNA, 50% formamide and cDNA probe. After hybridization, the membranes were washed with 2×SSC and 0.5% SDS at room temperature for 15 min, 2×SSC and 0.1% SDS at room temperature for 15 min, and 0.1×SSC and 0.5% SDS for 30 min. Dupont Reflection NEF film (Dupont Canada, Inc., Mississauga, ON) was exposed to the membranes for 1-3 days at −80° C. Bands on radiographic film were analyzed using a SigmaGel gel analysis software package (Jandel Scientific Software, San Rafael, Calif.).

A further series has as its system uPAR. To be noted: vascular endothelial cells; cited from earlier work.

Entries after “also recorded” stand apart in the source; their conditions may differ. Where a name gives a salt, the structure may show the parent alone. Read-outs that look alike come from different tables or passages of the source.

As for `CC(=O)N(O)CCCCCNC(=O)CCC(=O)N(O)CCCCCNC(=O)CCC(=O)N(O)CCCCCN` [DFO, desferrioxamine mesylate], the “levels of RTP/Drg1 protein” value with RTP/Drg1 protein is “time-dependent increases in RTP/Drg1 protein”. In addition, the “levels of RTP/Drg1 mRNA” value in the series with RTP/Drg1 mRNA was “time-dependent increases in RTP/Drg1 mRNA”.

For `CC(C)C(=O)Nc1ccc([N+](=O)[O-])c(C(F)(F)F)c1` [flutamide], the “metabolism upon administration / absorption” value in the series with hepatic cytochromes P450 was “rapidly metabolised by hepatic cytochromes P450”.

Turning to `N[C@@H](CCS)C(=O)O` [homocysteine], in the series on RTP/Drg1 [1], the “expression of RTP/Drg1” value is listed as “increased”.

For `[Ni]` [nickel], the “expression of RTP/Drg1” value in the series with RTP/Drg1 [2] is given as “increased”.

With `ClC(Cl)=C(c1ccc(Cl)cc1)c1ccc(Cl)cc1` [p,p-DDE], the APO-induced erections result in the series on APO-induced erections (270 mg/kg p,p-DDE i.p., 5 hour testing period, Study 1) was “no significant effect”. In addition, in the series with APO-induced erections (500 mg/kg p,p-DDE i.p., 3 hours after administration, Study 1), the APO-induced erectile response result is “significant decrease”. Moreover, in the series on APO-induced erections (500 mg/kg p,p-DDE vs control and 50 mg/kg flutamide), the “APO-induced erectile response two weeks after administration” value was “significantly different from controls and from the flutamide two week response; also recorded: remained significantly lower than controls; also recorded: significantly different from both control and 50 mg/kg flutamide responses”. Also, in the series on APO-induced erections (single dose 500 mg/kg p,p-DDE, 0.5, 4, 12, 24 hours and 2 weeks, 500 mg/kg), the “APO-induced erections, time course” value is on record as “significantly decreased; also recorded: persistently suppressed”. Also, in the series with APO-induced yawns (500 mg/kg p,p-DDE, two week assessment), the APO-induced yawns entry is listed as “not significantly different from control levels; also recorded: little effect”. Besides, in the series on APO-induced yawns (p,p-DDE treatment, Study 1), the APO-induced yawning responses result is on record as “not altered”. Further, the “metabolism upon administration / absorption” value with hepatic cytochromes P450 was “not metabolised”. Further, the plasma testosterone levels result in series [3] is listed as “did not alter plasma testosterone levels”.

For the compound `CCC(=O)O[C@H]1CC[C@H]2[C@@H]3CCC4=CC(=O)CC[C@]4(C)[C@H]3CC[C@]12C` [testosterone, testosterone propionate], the “APO-induced erections in p,p-DDE treated rats after testosterone supplementation” value in the series with APO-induced erections (480 ug/kg, 1.2 or 2.4 mg/kg i.p., 0.5, 4, 12 hours, two weeks after p,p-DDE) is listed as “no significant increases in erections; also recorded: remained significantly decreased at most of the time points; also recorded: failed to return APO-induced erections to control levels”. The “APO-induced yawning responses after testosterone supplementation” value with APO-induced yawns (p,p-DDE treated rats, 12 hour test periods) was “did not change the status of yawning responses”.

In the case of VEGF, the “induction of uPAR mRNA” value with uPAR mRNA was “did not result in increased levels of uPAR transcript; also recorded: does not induce”. In addition, in the series on uPAR, the “expression of uPAR” value is “increases the expression of uPAR”.
